Experimental data as given in patent US9205091B2, “Diazeniumdiolated compounds, pharmaceutical compositions, and method of treating cancer” (The United States of America, as represented by the …, priority 2009, dated 2015).
pIC50: −log10 of the molar value.

Columns and labels:
H1944 cells [1] = experiment: H1944 xenograft in athymic NCr-nu/nu mice, JS-K (Example 3); format: in vivo; conditions: 6 μmol/kg i.v., three times a week for three weeks
Method: (§1) H1944 or H1703 cells are injected at 5×10^6 s.c. into a flank of 7-week-old female athymic NCr-nu/nu mice (Charles River, Wilmington, Mass.). The drug injections are initiated when the tumors reached 2×2×2 mm (typically 3-4 weeks). JS-K is formulated in Pluronic P123 (P123) (BASF, Florham Park, N.J.) micelles. Animals are treated three times a week for three weeks with i.v. tail vein injections of either vehicle (2.25% P123 in PBS) or JS-K (6 μmol/kg in the vehicle). Tumors are measured using a caliper twice a week, and the tumor volumes are calculated using a formula for ellipsoid volume, π/6×L×W×H (Tomayko and Reynolds, 1989). The non-parametric Mann-Whitney test is utilized for statistical comparisons of tumor volumes at each time point. Body weights are taken before each drug injection. Animals are sacrificed 2 h after the last drug injection. Blood is collected by cardiac puncture under isoflurane anesthesia, for testing for cytokines. Cytokines in serum are measured using a mouse Th1/2 multiplex assay (Meso Scale Discovery, Gaithersburg, Md.), according to the manufacturer's protocol. There were 9-13 mice/group at termination.

mitochondrial superoxide = experiment: Mitochondrial superoxide level, MitoSOX; format: cell-based, human
Method: Mitochondrial superoxide level is measured using MitoSOX fluorescent dye (Invitrogen, Carlsbad, Calif.), according to the manufacturer's protocol. Rotenone (10 μM) is used as a positive control.

[2] = tested on: IL-1β, IL-2, IL-4, IL-5, IL-10, IL-12t, IFNγ or TNFα; experiment: Serum cytokines, mouse Th1/2 multiplex assay; format: in vivo, mice; conditions: serum at termination; 6 μmol/kg i.v., three times a week for three weeks
Method: as §1

NSCLC cell lines = experiment: MTT proliferation assay, JS-K, NSCLC panel summary; format: cell-based, human; conditions: six cell lines; read-out: IC50 range of the sensitive cell lines
Method: JS-K is synthesized as described previously (Saavedra et al., J. Org. Chem., 66: 3090-3098(2001)). Cell lines are obtained from the American Type Culture Collection (Manassas, Va.) and cultured according to the supplier's protocol. For proliferation assays cells are seeded at 2×10^4 per well in 96-well plates and allowed to adhere for 24 h. JS-K is prepared as 10 mM stock solution in DMSO. Increasing drug concentrations in 10 μL of PBS are added to 100 μL of the culture medium for 48 h. MTT assay (Promega, Madison, Wis.) is performed according to the manufacturer's protocol. Each concentration is represented in six repeats, and the screening is performed as at least two independent experiments. IC50 values are calculated using Sigma Plot software (Systat Software, Chicago, Ill.).

MnSOD = experiment: Anti-nitrotyrosine immunoprecipitation, anti-MnSOD immunoblot; format: cell-based, human; conditions: H1703 cells, 1 h
Method: For immunoprecipitation, 300 μg of the cell lysate is incubated on the rotator overnight at 4° C. with 2 μg of anti-nitrotyrosine mAb and 30 μL of protein G agarose. After washing three times with lysis buffer, the beads are suspended in 30 μL of 2×NuPAGE (Invitrogen, Carlsbad, Calif.) loading buffer and heated for 10 min at 95° C. Immunoprecipitated material is resolved on SDS-PAGE followed by immunoblotting with anti-MnSOD antibody.
Western blot analysis is performed as previously described (Romanowska et al., Free Radical Biol. Med., 43:1145-1155 (2007)). Primary antibodies for caspases 3, 7, PARP and cleaved PARP, Bax, cytochrome c (Cell Signaling Technology, Danvers, Mass.), peroxiredoxins 1-6 (LabFrontier, Seoul, Korea), and nitrotyrosine and MnSOD (Millipore, Billerica, Mass.) are used.

H1703 cells [3] = experiment: Intracellular nitric oxide, DAF-FM diacetate; format: cell-based, human; conditions: 1 μM, up to 60 min
Method: Cells growing on 6-well plates are loaded with 2.5 μM DAF-FM diacetate in HBSS at 37° C. and 5% CO2. After 30 min of incubation the cells are rinsed with HBSS to remove excess probe, and JS-K in fresh HBSS is added to the cells at 1 μM final concentration. After 30 or 60 min incubation the fluorescence of the benzotriazole derivative formed on DAF-FM's reaction with aerobic NO is analyzed using a Perkin Elmer LS50B luminescence spectrometer with the excitation source at 495 nm and emission at 515 nm. All experiments are performed at least three times, each time in triplicate.

H1703 cells [4] = experiment: H1703 xenograft in athymic NCr-nu/nu mice, tumor weights (Example 10); format: in vivo; conditions: 6 micromols/kg i.v., three times a week for three weeks
Method: H1703 cells are harvested at 80% confluence, washed with PBS, and suspended in PBS. The cells are injected at 5×10^6 s.c. into a flank of 7-week-old female athymic NCr-nu/nu mice (Charles River). […] Animals are treated three times a week for three weeks with i.v. tail vein injections of either vehicle (2.25% P-123 in PBS) or 1 or 2 (6 micromols/kg in the vehicle) or 6 (8 micromols/kg). Body weights are taken before each drug injection. Animals are sacrificed two hours after the last drug injection and the tumors are excised and weighed. There are 13-15 mice/group at termination. The non-parametric Mann-Whitney test is utilized for statistical comparisons of tumor weights.

H1703 cells [5] = experiment: Intracellular ROS/RNS, CM-H2DCF-DA (DCF fluorescence); format: cell-based, human; conditions: up to 60 min
Method: (§2) Intracellular level of reactive oxygen/nitrogen species is quantified by the oxidation of the ROS/RNS-sensitive fluorophore 5-(and-6)-chloromethyl-2′,7′-dichlorodihydrofluorescein diacetate (CM-H2DCF-DA) (Invitrogen, Carlsbad, Calif.). Cells growing on 6-well plates (6×10^5/well) are loaded with 5 μM CM-H2DCF-DA in Hanks' balanced salt solution (HBSS) at 37° C. and 5% CO2. After 30 min of incubation, HBSS containing the probe is removed, cells are rinsed with HBSS and 3 mL of fresh HBSS is added to each well followed by addition of JS-K or DMSO as a control. After 30 min or 60 min the cells are collected by scraping in HBSS and 2′,7′-dichlorofluorescein (DCF) fluorescence is measured using a Perkin Elmer LS50B luminescence spectrometer with the excitation source at 488 nm and emission at 530 nm.

H1944 cells [6] = experiment: as above; format: cell-based, human; conditions: up to 60 min
Method: as §2

`CCOC(=O)N1CCN(/[N+]([O-])=N/Oc2ccc([N+](=O)[O-])cc2[N+](=O)[O-])CC1` [Compound 1] was tested, and the “growth of xenografted tumor cells vs vehicle” value (H1944 cells [1]) was “significantly reduces growth”, the mitochondrial superoxide generation (mitochondrial superoxide) was “increase” and the “serum cytokine levels, treated vs control groups” value [2] was “no significant differences”. The pIC50 (NSCLC cell lines) was 6.00 to 6.48, the “nitrotyrosine level in MnSOD” value (MnSOD) was “increase” and the “intracellular NO” value (H1703 cells [3]) was “increase”. For the same compound, the “growth of H1703 human NSCLC cells in vivo vs vehicle” value (H1703 cells [4]) was “significantly reduced growth”, the “reduction of the tumor weights” value (H1703 cells [4]; vs vehicle) was 49% and the DCF-reactive material (H1703 cells [5]) was “increase”. The DCF-reactive material (H1944 cells [6]) was “not”.
